Drawing on PubChem BioAssay (NCI), this text covers TGI and GI50 for 15 compounds.

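All cell lines were grown in 96-well plates and treated with compound for 48 hours. At the GI50, growth is halved. At the TGI there is no net growth.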

Some test systems named below: OVCAR-5 ovarian; SK-MEL-28 melanoma; ACHN renal; U251 CNS; UO-31 renal; OVCAR-3 ovarian; UACC-62 melanoma; SK-OV-3 ovarian; NCI/ADR-RES ovarian.
What all share (test): NCI tumour cell line growth inhibition, 48 h

Regarding `CC(C)(C)c1cc(CCC(=O)Nc2ccc(Cl)cc2Cl)nc(N)n1`, the TGI in the test with OVCAR-5 ovarian, in the test with SK-MEL-28 melanoma, in the test with ACHN renal, in the test on U251 CNS, with UO-31 renal and in the test on OVCAR-3 ovarian was more than 100 µM throughout. For the same compound, the TGI in the test with UACC-62 melanoma and with SK-OV-3 ovarian was more than 100 µM throughout.

`C=CC1=CC(C)C[C@]1(O)C(=O)OC` (stereo partly specified): the GI50 in the test with OVCAR-5 ovarian, with SK-MEL-28 melanoma, in the test on ACHN renal, with U251 CNS, with UO-31 renal and with OVCAR-3 ovarian was more than 100 µM each time. Further, in the test on UACC-62 melanoma, the GI50 was more than 100 µM. This compound also displayed a TGI in the test with SK-OV-3 ovarian of more than 100 µM.

For `Cc1nnc(N=Nc2c(O)[nH]c3ccccc23)n1N`, the TGI with OVCAR-5 ovarian, with SK-MEL-28 melanoma, in the test with ACHN renal, in the test with U251 CNS, with UO-31 renal and in the test with OVCAR-3 ovarian was more than 100 µM throughout. In addition, the TGI in the test on UACC-62 melanoma and in the test with SK-OV-3 ovarian was more than 100 µM throughout.

On to `CC1=C(C(=O)CC(=O)C(=O)NC2C3CC4CC(C3)CC2C4)Sc2ccccc2N1` (stereo unspecified), for which the TGI in the test with OVCAR-5 ovarian, in the test on SK-MEL-28 melanoma, in the test on ACHN renal, in the test on U251 CNS, with UO-31 renal and in the test with OVCAR-3 ovarian was more than 100 µM throughout. Also, the TGI was more than 100 µM in the test with UACC-62 melanoma and more than 31.6 µM in the test on SK-OV-3 ovarian.

Consider `CCCCCCCCCC(=O)Oc1cccc2onc(C)c12`, for which the TGI in the test with OVCAR-5 ovarian, in the test on SK-MEL-28 melanoma, in the test with ACHN renal, in the test on U251 CNS, with UO-31 renal and in the test with OVCAR-3 ovarian was more than 100 µM each time. The TGI in the test with UACC-62 melanoma and in the test on SK-OV-3 ovarian was more than 100 µM in each case.

As to `O=C(/C=C/c1cn(-c2ccccc2)nc1-c1ccc([N+](=O)[O-])cc1)c1ccc(Cl)cc1`, the GI50 in the test on OVCAR-5 ovarian was more than 100 µM; in the test with ACHN renal, 3.64 µM; with NCI/ADR-RES ovarian, 3.86 µM; with UACC-62 melanoma it was 6.01 µM; in the test with SK-OV-3 ovarian, 7.83 µM. Moreover, the TGI was more than 100 µM in the test with OVCAR-5 ovarian; more than 43.6 µM in the test on ACHN renal; more than 100 µM in the test with NCI/ADR-RES ovarian; more than 100 µM with UACC-62 melanoma; more than 77.3 µM in the test with SK-OV-3 ovarian.

In the case of `Cc1ccccc1NC(=O)C(=O)CC(=O)c1ccc([N+](=O)[O-])cc1`, the TGI with OVCAR-5 ovarian, with SK-MEL-28 melanoma, in the test on ACHN renal, in the test with U251 CNS, in the test on UO-31 renal and with OVCAR-3 ovarian was more than 100 µM in each case. The TGI with UACC-62 melanoma and with SK-OV-3 ovarian was more than 100 µM each time.

With `CCOC(=O)C[C@@]12CCCNC1(C)CCc1ccccc12` (stereo partly specified), the TGI with ACHN renal, with U251 CNS, with UO-31 renal, with OVCAR-3 ovarian, in the test with UACC-62 melanoma and with SK-OV-3 ovarian was more than 100 µM each time.

Consider `CC(=O)[CH-]C(=O)c1ccccc1.CC(=O)[CH-]C(=O)c1ccccc1.[CH2-]CCC.[CH2-]CCC.[Sn+4]`, for which the GI50 in the test with OVCAR-5 ovarian is 2.07 µM; in the test with ACHN renal it was 1.49 µM; in the test with U251 CNS, 1.32 µM; with UO-31 renal it was 1.37 µM; in the test with OVCAR-3 ovarian it was 1.3 µM; in the test on UACC-62 melanoma, 0.754 µM. The GI50 in the test on SK-OV-3 ovarian was 2.27 µM. Moreover, the TGI in the test on OVCAR-5 ovarian was 3.59 µM; in the test on ACHN renal, 2.86 µM; in the test with U251 CNS, 2.65 µM; with UO-31 renal, 2.66 µM; in the test on OVCAR-3 ovarian it was 2.62 µM; with UACC-62 melanoma, 2.17 µM. This compound yielded a TGI in the test on SK-OV-3 ovarian of 3.99 µM.

For `C[N+](C)=c1nc(N2CCOCC2)ss1`, the TGI in the test with OVCAR-5 ovarian, in the test on SK-MEL-28 melanoma, in the test with ACHN renal, with U251 CNS, in the test on UO-31 renal and in the test on UACC-62 melanoma was more than 100 µM in each case. Besides, the TGI in the test with SK-OV-3 ovarian is more than 100 µM.

As to `C/C(=N/NC(=O)CC(=O)N(C(=O)c1ccccc1Cl)c1ccc(C)cc1)c1cc2ccccc2oc1=O`, the TGI in the test on OVCAR-5 ovarian, in the test with SK-MEL-28 melanoma, in the test on ACHN renal, in the test with U251 CNS, with UO-31 renal and with OVCAR-3 ovarian was more than 100 µM in each case. In addition, in the test with UACC-62 melanoma, the TGI is more than 100 µM.

For the compound `O=C(O)[C@@H]1CCCC[C@@H]1C(=O)N(C1CCCCC1)C1CCCCC1`, the TGI with OVCAR-5 ovarian, with SK-MEL-28 melanoma, with ACHN renal, in the test on U251 CNS, with UO-31 renal and with OVCAR-3 ovarian was more than 100 µM in each case. Further, the TGI in the test on UACC-62 melanoma and in the test on SK-OV-3 ovarian was more than 100 µM each time.

`COc1ccc(CC2=NCCc3cc(OC)c(OC)cc32)cc1Br`: the TGI is 8.32 µM with OVCAR-5 ovarian; more than 100 µM with SK-MEL-28 melanoma; more than 100 µM in the test on ACHN renal; more than 100 µM in the test on U251 CNS; more than 100 µM in the test on UO-31 renal; 36.6 µM with UACC-62 melanoma. The compound also returned a TGI in the test on SK-OV-3 ovarian of more than 100 µM.

For `CC1(C)CC(=O)c2c(oc3cc(O)c(O)cc23)C1`, the TGI is 56.9 µM in the test on OVCAR-5 ovarian; more than 100 µM in the test with ACHN renal; more than 100 µM in the test with U251 CNS; more than 100 µM with UO-31 renal; 32 µM in the test with UACC-62 melanoma; more than 100 µM in the test with SK-OV-3 ovarian.

In the case of `COc1ccc(NC(=O)c2sc3nc4c(cc3c2N)CCCC4)cc1`, the GI50 in the test with OVCAR-5 ovarian was 7.28 µM; in the test on SK-MEL-28 melanoma, 15.2 µM; in the test on ACHN renal it was 0.627 µM; in the test on NCI/ADR-RES ovarian, 0.384 µM; in the test with U251 CNS, 0.652 µM; in the test with UO-31 renal, 0.795 µM. Also, the GI50 with OVCAR-3 ovarian is 0.336 µM; in the test on UACC-62 melanoma it was 0.352 µM; with SK-OV-3 ovarian it was 1.92 µM. Besides, the TGI with OVCAR-5 ovarian was more than 100 µM; with SK-MEL-28 melanoma it was more than 100 µM; in the test with ACHN renal, more than 100 µM; with NCI/ADR-RES ovarian, 3.85 µM; with U251 CNS, more than 100 µM; in the test on UO-31 renal, more than 100 µM. In addition, the TGI is 3.19 µM in the test with OVCAR-3 ovarian, more than 100 µM in the test with UACC-62 melanoma and more than 100 µM in the test with SK-OV-3 ovarian.
